According to US9586994B2, “CD44V6-derived peptides for treating breast cancer” (KARLSRUHER INSTITUT FÜR TECHNOLOGIE, priority 2012, dated 2017):

Columns and labels:
CD44v6 [1] = test: HGF-induced activation of Met and ERK in L3.6pl cells (Western blot); format: cell-based, human; details: peptide before induction with 10 ng/ml HGF
Summary of the method: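 L3.6pl human pancreatic carcinoma cells serum-starved 24 h, pretreated 10 min at 37° C with CD44v6 or control peptide (100 ng/mL), then stimulated with HGF (10 ng/mL) 5 min. Phospho-Met and phospho-ERK detected by western blot with total Met/ERK reprobe; bands quantified densitometrically.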

CD44v6 [2] = test: HGF-induced activation of Met and Erk in HeLa cells (Western blot); format: cell-based, human
Protocol: FIG. 28: A: Activation of Met and signal transduction induced by HGF depends on CD44v6 in L3.6pl cells. L3.6pl cells were treated with the human v6 peptide (human v6 14mer) or the rat v6 peptide as control prior to induction with 10 ng/ml HGF. Activation of Met and ERK was determined in western blot. The numbers refer to the fold induction. The experiment was repeated at least 5 times. B: Activation of c-Met and signal transduction induced by HGF depends on CD44v6 HeLa cells. Starved HeLa cells respectively HT29 cells were incubated with the v6 peptide (human v6 14mer) or a control peptide for 10 minutes at 37° C. and then induced with 25 ng/ml of HGF for the indicated time points. Cells were then either lysed and the lysates were subjected to Western Blot analysis for phospho-Met and Met. C: Activation of c-Met and signal transduction induced by HGF depends on CD44v6 in HT29 cells. HGF-induced c-Met and Erk phosphorylation in HT29 was determined as described above using phospho-specific antibodies. […]
The contribution of CD44v6 to Met signaling in the human epithelial pancreatic cancer cells L3.6pl (derived from Colo 357), the cervix carcinoma cells HeLa and the colon cancer cells HT29 were analysed using the CD44v6 peptide (v6 14mer; v6 5mer tested as well, data not shown).

L3.6pl cells = test: Human orthotopic pancreatic cancer model, L3.6pl cells in nude mice, treatment from day 7; format: in vivo, mouse; details: nude mice
Summary of the method: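 L3.6pl pancreatic carcinoma cells (passage 24-26) were injected orthotopically into the pancreas of male nude mice. From day 7, groups of 15 received i.p. human v6 peptide or rat control peptide (20 μg, 14mer or 5mer), three times weekly for 21 days. Animals were killed two days after the last dose; tumors were analyzed by P-Met, Met, CD31 and caspase immunostaining.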

[3] = orthotopic L3.6pl, 20 μg i.p. three times per week

KEQWFGNRWHEGYR [SEQ ID NO: 6, human CD44v6 14mer peptide]
HGF-induced phosphorylation/activation of ERK (CD44v6 [1]): inhibited | HGF-induced phosphorylation/activation of Met (CD44v6 [1]): inhibited | HGF-induced phosphorylation/activation of ERK (CD44v6 [1]; listed as CD44v6 peptide): able to prevent activation | HGF-induced phosphorylation/activation of Met (CD44v6 [1]; listed as CD44v6 peptide): able to prevent activation | HGF-induced activation of downstream target Erk (CD44v6 [2]; peptide before induction with HGF): able to prevent activation | HGF-induced activation of Met (CD44v6 [2]; starved, peptide 10 min 37° C., HGF 25 ng/ml): able to prevent activation | Tumor angiogenesis (CD31 staining, vessel number and vessel size) (L3.6pl cells; orthotopic L3.6pl tumors): decreased angiogenesis as exemplified by a reduced vessel number and vessel size | Metastasis formation (liver) (L3.6pl cells; [3]): completely inhibited metastasis formation within the liver | Outgrowth of the primary tumor in the pancreas (L3.6pl cells; [3]): strongly repressed | Met activation in the tumor (phospho-Met immunofluorescence) (L3.6pl cells; orthotopic L3.6pl, 20 μg i.p. three times per week for three weeks): completely repressed Met activation
